Measurements: patent US20240041902A1, “COMPOSITIONS AND METHODS FOR THE TREATMENT OF UROTHELIAL CANCER” (The State of Israel, Ministry of Agriculture & Rural …, priority 2020, published 2024)
Like-named read-outs stand apart in the source and are kept apart here.

Tests used:
T24 cells [1] = experiment: Cell migration scratch assay; type: cell-based, human; details: sub-lethal: CBD 10, CBC+THC 8.6+1.4, MMC 4, CBC 10, THC 10 μg/mL; vs control
Protocol: The scratch area, indicated by the cells that migrated to the scratch at time x, was calculated as the percentage of the scratch area at time x from time 0: […]

T24 cells [2] = experiment: Bliss independence drug interaction model on T24 cell viability; type: cell-based, human; details: for inhibition at 1 µg/mL / inhibition at 2 µg/mL / inhibition at 3 µg/mL / inhibition at 5 µg/mL / inhibition at 7.5 µg/mL / inhibition at 10 µg/mL / inhibition at 12.5 µg/mL: Homo sapiens, T-24
Protocol: Cell proliferation assay—XTT assay was carried out as described in [34], on T24 and HTB-9 cells. 1*10^4 cells/well were seeded in 96-wells plates, methanol was used as a vehicle control at the same concentration as the treatments. Mitomycin-C (MMC) was used as positive control. Cell viability was calculated relative to the vehicle control after subtracting blank.
Analysis of combined drug effects—Drug synergy was determined by the Bliss independence drug interaction model as described in [31], on T24 cells.

CCCCCc1cc(O)c2c(c1)OC(C)(CCC=C(C)C)C=C2 (centres unmarked) [CBC, Cannabichromene] was tested, and the “cell migration into the scratch” value (T24 cells [1]) was “reduced cell migration to a lesser extent than treatment with CBC+THC”, the “Calculated (expected) value of cell survival inhibition” value (T24 cells [2]; CBC 3.5 + THC 0 μg/ml) was −0.2617 and the “Delta between observed and experimental values calculated according to Bliss model” value (T24 cells [2]; CBC 3.5 + THC 0 μg/ml) was 1.26E−10. The “Experimental (observed) value of cell survival inhibition” value (T24 cells [2]; CBC 3.5 + THC 0 μg/ml) was −0.2617, the “Calculated (expected) value of cell survival inhibition” value (T24 cells [2]; CBC 5.5 + THC 0 μg/ml) was 0.003989 and the “Delta between observed and experimental values calculated according to Bliss model” value (T24 cells [2]; CBC 5.5 + THC 0 μg/ml) was 9.96E−11. The “Experimental (observed) value of cell survival inhibition” value (T24 cells [2]; CBC 5.5 + THC 0 μg/ml) was 0.003989, the “Calculated (expected) value of cell survival inhibition” value (T24 cells [2]; CBC 7.5 + THC 0 μg/ml) was −0.05563 and the “Delta between observed and experimental values calculated according to Bliss model” value (T24 cells [2]; CBC 7.5 + THC 0 μg/ml) was 1.06E−10. For the same compound, the “Experimental (observed) value of cell survival inhibition” value (T24 cells [2]; CBC 7.5 + THC 0 μg/ml) was −0.05563, the “Calculated (expected) value of cell survival inhibition” value (T24 cells [2]; CBC 9.5 + THC 0 μg/ml) was −0.061 and the “Delta between observed and experimental values calculated according to Bliss model” value (T24 cells [2]; CBC 9.5 + THC 0 μg/ml) was 1.06E−10. For the same compound, the “Experimental (observed) value of cell survival inhibition” value (T24 cells [2]; CBC 9.5 + THC 0 μg/ml) was −0.061, the “Calculated (expected) value of cell survival inhibition” value (T24 cells [2]; CBC 11.5 + THC 0 μg/ml) was 0.2028 and the “Delta between observed and experimental values calculated according to Bliss model” value (T24 cells [2]; CBC 11.5 + THC 0 μg/ml) was 7.97E−11. For the same compound, the “Experimental (observed) value of cell survival inhibition” value (T24 cells [2]; CBC 11.5 + THC 0 μg/ml) was 0.2028, the “Calculated (expected) value of cell survival inhibition” value (T24 cells [2]; CBC 13.5 + THC 0 μg/ml) was 0.5088 and the “Delta between observed and experimental values calculated according to Bliss model” value (T24 cells [2]; CBC 13.5 + THC 0 μg/ml) was 4.91E−11. The “Experimental (observed) value of cell survival inhibition” value (T24 cells [2]; CBC 13.5 + THC 0 μg/ml) was 0.5088.

CCCCCc1cc(O)c2c(c1)OC(C)(C)[C@@H]1CCC(C)=C[C@@H]21 [THC, Tetrahydrocannabinol] was tested, and the “cell migration into the scratch” value (T24 cells [1]) was “had no effect on cell migration”, the “Delta between observed and experimental values calculated according to Bliss model” value (T24 cells [2]; CBC 0 + THC 1 μg/ml) was 0 and the “Delta between observed and experimental values calculated according to Bliss model” value (T24 cells [2]; CBC 0 + THC 2 μg/ml) was 0. The “Delta between observed and experimental values calculated according to Bliss model” value (T24 cells [2]; CBC 0 + THC 3 μg/ml) was 0, the “Delta between observed and experimental values calculated according to Bliss model” value (T24 cells [2]; CBC 0 + THC 5 μg/ml) was 0 and the “Delta between observed and experimental values calculated according to Bliss model” value (T24 cells [2]; CBC 0 + THC 7.5 μg/ml) was 0. The “Delta between observed and experimental values calculated according to Bliss model” value (T24 cells [2]; CBC 0 + THC 10 μg/ml) was 0, the “Delta between observed and experimental values calculated according to Bliss model” value (T24 cells [2]; CBC 0 + THC 12.5 μg/ml) was 0 and the inhibition at 1 µg/mL (T24 cells [2]; CBC 0 + THC 1 μg/ml, read-out: Calculated (expected) value of cell survival inhibition) was -1.14%. It also gave an inhibition at 1 µg/mL (T24 cells [2]; CBC 0 + THC 1 μg/ml, read-out: Experimental (observed) value of cell survival inhibition) of -1.14%, an inhibition at 2 µg/mL (T24 cells [2]; CBC 0 + THC 2 μg/ml, read-out: Calculated (expected) value of cell survival inhibition) of -3.21% and an inhibition at 2 µg/mL (T24 cells [2]; CBC 0 + THC 2 μg/ml, read-out: Experimental (observed) value of cell survival inhibition) of -3.21%. It also gave an inhibition at 3 µg/mL (T24 cells [2]; CBC 0 + THC 3 μg/ml, read-out: Calculated (expected) value of cell survival inhibition) of -1.37%, an inhibition at 3 µg/mL (T24 cells [2]; CBC 0 + THC 3 μg/ml, read-out: Experimental (observed) value of cell survival inhibition) of -1.37% and an inhibition at 5 µg/mL (T24 cells [2]; CBC 0 + THC 5 μg/ml, read-out: Calculated (expected) value of cell survival inhibition) of 4.88%. The inhibition at 5 µg/mL (T24 cells [2]; CBC 0 + THC 5 μg/ml, read-out: Experimental (observed) value of cell survival inhibition) was 4.88%, the inhibition at 7.5 µg/mL (T24 cells [2]; CBC 0 + THC 7.5 μg/ml, read-out: Calculated (expected) value of cell survival inhibition) was -1.83% and the inhibition at 7.5 µg/mL (T24 cells [2]; CBC 0 + THC 7.5 μg/ml, read-out: Experimental (observed) value of cell survival inhibition) was -1.83%. It also gave an inhibition at 10 µg/mL (T24 cells [2]; CBC 0 + THC 10 μg/ml, read-out: Calculated (expected) value of cell survival inhibition) of 4.23%, an inhibition at 10 µg/mL (T24 cells [2]; CBC 0 + THC 10 μg/ml, read-out: Experimental (observed) value of cell survival inhibition) of 4.23% and an inhibition at 12.5 µg/mL (T24 cells [2]; CBC 0 + THC 12.5 μg/ml, read-out: Calculated (expected) value of cell survival inhibition) of 27%. It also gave an inhibition at 12.5 µg/mL (T24 cells [2]; CBC 0 + THC 12.5 μg/ml, read-out: Experimental (observed) value of cell survival inhibition) of 27%.
